Here are results for 20 compounds from patent US12503438B2, “Compounds for the treatment of kinase-dependent disorders” (Exelixis, Inc., priority 2019, dated 2025).

Molecules are shown by their SMILES. Some results are limits rather than exact numbers.

Assay [1] addresses Met (Homo sapiens, UniProt P08581). Kind of assay: Human Met kinase assay (33P-phosphoryl transfer radiometric, KinaseProfiler). Set-up: Human Met (residues R974-S1390 with A1209G and V1290L, 3.4 nM); purchased Eurofins Pharma Discovery Services UK Limited (KinaseProfiler service). As to conditions: biochemical activity; 10 μM ATP; read-out: c-Met IC50. As to the method:
Kinase activity and compound inhibition were investigated using the ^33P-Phosphoryl transfer radiometric kinase assay, performed using the KinaseProfiler™ service of Eurofins Pharma Discovery Services UK Limited. Dose-response experiments were performed using nine compound concentrations in a 96-well microtiter plate. For each assay, all compounds were prepared to a 50× final assay concentration (50 μM) in 100% DMSO, then diluted in a half-log series, with the final top concentration at 1 μM. This working stock of the compound was added to the assay well as the first component in the reaction, followed by the remaining components as detailed in the following assay protocols below. The positive control wells (100% kinase activity) contain all components of the reaction including 2% DMSO (control for solvent effects), except the compound of interest. Blank wells contain all components of the reaction, with the reference inhibitor, staurosporine. This reference compound was used to abolish kinase activity and generated the 0% kinase activity base-line. IC50 values were calculated by nonlinear regression analysis using the sigmoidal dose-response (variable slope) curve fit on XLFit version 5.3 (ID Business Solutions).
Human Met (residues R974-S1390 with A1209G and V1290L, 3.4 nM) was incubated with 8 mM MOPS pH 7.0, 0.2 mM EDTA, 250 μM KKKGQEEEYVFIE, 1 mM sodium orthovanadate, 5 mM […], 10 mM magnesium acetate, and 10 μM [γ-^33P-ATP]. The reaction was initiated by the addition of the Mg/ATP mix. After incubation for 40 minutes at room temperature, the reaction was stopped by the addition of phosphoric acid to a concentration of 0.5%. A reaction aliquot of 10 μL was then spotted onto a P30 filtermat and washed four times for 4 minutes in 0.425% phosphoric acid and once in methanol prior to drying and scintillation counting. Incorporated ^33P was measured using the Wallac Microbeta scintillation counter (Perkin Elmer).

For assay [2], the target named is T1, AXL (Homo sapiens, UniProt P30530).
T1 construct: endogenous in cells; host or cells: A-172 glioblastoma cells (ATCC #CRL-1620)
T1 sequence (P30530 26-894): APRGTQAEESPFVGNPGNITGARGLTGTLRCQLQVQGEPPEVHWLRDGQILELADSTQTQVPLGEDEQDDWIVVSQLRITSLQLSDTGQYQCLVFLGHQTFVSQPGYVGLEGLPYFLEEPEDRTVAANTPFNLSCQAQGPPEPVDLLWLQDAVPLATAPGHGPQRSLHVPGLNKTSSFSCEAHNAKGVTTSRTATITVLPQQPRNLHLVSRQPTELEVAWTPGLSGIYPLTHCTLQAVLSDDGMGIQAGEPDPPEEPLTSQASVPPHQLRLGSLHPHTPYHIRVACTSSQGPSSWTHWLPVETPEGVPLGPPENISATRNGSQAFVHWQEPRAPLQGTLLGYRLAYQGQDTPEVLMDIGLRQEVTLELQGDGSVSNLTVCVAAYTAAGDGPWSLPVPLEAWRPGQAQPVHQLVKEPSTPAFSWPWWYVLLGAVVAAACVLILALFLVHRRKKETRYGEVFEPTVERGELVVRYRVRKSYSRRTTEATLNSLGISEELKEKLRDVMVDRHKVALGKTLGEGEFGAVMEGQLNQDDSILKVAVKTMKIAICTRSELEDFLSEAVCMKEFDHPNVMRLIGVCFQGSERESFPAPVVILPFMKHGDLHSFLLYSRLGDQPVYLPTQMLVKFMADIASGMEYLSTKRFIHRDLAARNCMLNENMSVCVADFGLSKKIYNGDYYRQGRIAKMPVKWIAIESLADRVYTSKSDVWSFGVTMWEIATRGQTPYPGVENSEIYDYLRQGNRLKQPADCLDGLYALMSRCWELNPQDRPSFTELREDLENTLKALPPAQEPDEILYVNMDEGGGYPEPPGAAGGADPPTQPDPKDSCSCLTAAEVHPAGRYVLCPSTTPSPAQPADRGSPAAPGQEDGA
Kind of assay: AXL autophosphorylation ELISA in A-172 cells. The following applies: cellular activity, Gas6-stimulated, phospho-AXL ELISA. It counts as cell-based. In outline:
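Serum-starved (24 h) A-172 glioblastoma cells got an 8-point compound series (0.3% DMSO) for 1 h, then 1 μg/mL human Gas6 for 15 min. Lysate phospho-AXL quantified by ELISA against phospho-AXL standard, normalized to DMSO and reference-inhibitor controls; IC50 by 4-parameter logistic fit.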
Background: In an ELISA, binding on a coated surface is turned into a signal by an enzyme label.

Met, sequence (P08581 974-1390): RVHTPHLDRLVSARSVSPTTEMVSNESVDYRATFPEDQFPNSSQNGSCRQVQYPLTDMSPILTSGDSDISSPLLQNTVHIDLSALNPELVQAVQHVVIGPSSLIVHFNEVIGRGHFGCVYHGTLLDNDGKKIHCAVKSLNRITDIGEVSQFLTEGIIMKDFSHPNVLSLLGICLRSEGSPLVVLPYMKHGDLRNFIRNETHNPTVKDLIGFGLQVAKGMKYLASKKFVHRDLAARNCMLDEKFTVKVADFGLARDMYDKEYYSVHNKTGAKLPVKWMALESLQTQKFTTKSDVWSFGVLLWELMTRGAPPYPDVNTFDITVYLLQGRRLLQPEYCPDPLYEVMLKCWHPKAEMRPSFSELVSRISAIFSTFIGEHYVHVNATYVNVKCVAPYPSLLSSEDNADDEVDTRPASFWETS

Take `Cn1ccc(-c2ccc3c(Oc4ccc(NC(=O)C5(C(=O)Nc6ccc(F)cc6)CC5)cc4)ccnc3c2)n1` [Compound 17, 1-N′-(4-Fluorophenyl)-1-N-[4-[7-(1-methylpyrazol-3-yl)quinolin-4-yl]oxyphenyl]cyclopropane-1,1-dicarboxamide]: the IC50 was at most 0.01 µM in assay [1] and 0.01 to 0.1 µM in assay [2].

As for `O=C(Nc1ccc(F)cc1)C1(C(=O)Nc2ccc(Oc3ccnc4cc(-c5cnn(C(F)F)c5)ccc34)cc2)CC1` [Compound 13, 1-N-[4-[7-[1-(Difluoromethyl)pyrazol-4-yl]quinolin-4-yl]oxyphenyl]-1-N′-(4-fluorophenyl)cyclopropane-1,1-dicarboxamide], the IC50 in assay [1] and in assay [2] was at most 0.01 µM throughout.

Take `O=C(Nc1ccc(F)cc1)C1(C(=O)Nc2ccc(Oc3ccnc4cc(-c5ccnnc5)ccc34)cc2)CC1` [Compound 28, 1-N′-(4-Fluorophenyl)-1-N-[4-(7-pyridazin-4-ylquinolin-4-yl)oxyphenyl]cyclopropane-1,1-dicarboxamide]: the concentration for half-maximal inhibition (IC50) in assay [1] and in assay [2] was at most 0.01 µM each time.

Regarding `Cn1cc(-c2ccc3c(Oc4ccc(NC(=O)C5(C(=O)Nc6ccc(F)cc6)CC5)cc4)ccnc3c2)cn1` [Compound 11, 1-N′-(4-Fluorophenyl)-1-N-[4-[7-(1-methylpyrazol-4-yl)quinolin-4-yl]oxyphenyl]cyclopropane-1,1-dicarboxamide], the IC50 in assay [1] and in assay [2] was at most 0.01 µM throughout.

On to `O=C(Nc1ccc(F)cc1)C1(C(=O)Nc2ccc(Oc3ccnc4cc(-c5cnn(CCO)c5)ccc34)cc2)CC1` [Compound 18, 1-N′-(4-Fluorophenyl)-1-N-[4-[7-[1-(2-hydroxyethyl)pyrazol-4-yl]quinolin-4-yl]oxyphenyl]cyclopropane-1,1-dicarboxamide], for which the IC50 in assay [1] and in assay [2] was at most 0.01 µM in each case.

With `O=C(Nc1ccc(F)cc1)C1(C(=O)Nc2ccc(Oc3ccnc4cc(-c5cnn(C(F)(F)F)c5)ccc34)cc2)CC1` [Compound 12, 1-N′-(4-Fluorophenyl)-1-N-[4-[7-[1-(trifluoromethyl)pyrazol-4-yl]quinolin-4-yl]oxyphenyl]cyclopropane-1,1-dicarboxamide], the IC50 in assay [1] and in assay [2] was 0.01 to 0.1 µM each time.

Turning to `CCn1cc(-c2ccc3c(Oc4ccc(NC(=O)C5(C(=O)Nc6ccc(F)cc6)CC5)cc4)ccnc3c2)cn1` [Compound 20, 1-N-[4-[7-(1-Ethylpyrazol-4-yl)quinolin-4-yl]oxyphenyl]-1-N′-(4-fluorophenyl)cyclopropane-1,1-dicarboxamide], the IC50 in assay [1] and in assay [2] was at most 0.01 µM throughout.

As for `Cc1cc(F)cc(C)c1NC(=O)C1(C(=O)Nc2ccc(Oc3ccnc4cc(-c5cnn(C)c5)ccc34)cc2)CC1` [Compound 82, 1-N′-(4-Fluoro-2,6-dimethylphenyl)-1-N-[4-[7-(1-methylpyrazol-4-yl)quinolin-4-yl]oxyphenyl]cyclopropane-1,1-dicarboxamide], the half-inhibitory concentration (IC50) in assay [1] and in assay [2] was 0.01 to 0.1 µM throughout.

Consider `O=C(Nc1ccc(F)cc1)C1(C(=O)Nc2ccc(Oc3ccnc4cc(-c5cccnc5)ccc34)cc2)CC1` [Compound 25, 1-N′-(4-Fluorophenyl)-1-N-[4-(7-pyridin-3-ylquinolin-4-yl)oxyphenyl]cyclopropane-1,1-dicarboxamide], for which the IC50 in assay [1] was at most 0.01 µM; in assay [2], 0.01 to 0.1 µM.

In turn, `COc1cc(-c2ccc3c(Oc4ccc(NC(=O)C5(C(=O)Nc6ccc(F)cc6)CC5)cc4)ccnc3c2)ccn1` [Compound 31, 1-N′-(4-Fluorophenyl)-1-N-[4-[7-(2-methoxypyridin-4-yl)quinolin-4-yl]oxyphenyl]cyclopropane-1,1-dicarboxamide] had an IC50 in assay [2] of 0.01 to 0.1 µM.

In the case of `Cc1cc2c(Oc3cc(Cl)c(NC(=O)C4(C(=O)Nc5ccc(F)cc5)CC4)cc3F)ccnc2cc1-c1cnn(C)c1` [Compound 112, 1-N′-[2-Chloro-5-fluoro-4-[6-methyl-7-(1-methylpyrazol-4-yl)quinolin-4-yl]oxyphenyl]-1-N-(4-fluorophenyl)cyclopropane-1,1-dicarboxamide], in assay [2], the half-inhibitory concentration (IC50) lay within 0.01 to 0.1 µM.

As to `Cc1cncc(-c2ccc3c(Oc4ccc(NC(=O)C5(C(=O)Nc6ccc(F)cc6)CC5)cc4)ccnc3c2)c1` [Compound 46, 1-N′-(4-Fluorophenyl)-1-N-[4-[7-(5-methylpyridin-3-yl)quinolin-4-yl]oxyphenyl]cyclopropane-1,1-dicarboxamide], the IC50 in assay [2] was above 0.3 µM.

Consider `N#Cc1ccc(-c2ccc3c(Oc4ccc(NC(=O)C5(C(=O)Nc6ccc(F)cc6)CC5)cc4)ccnc3c2)cn1` [Compound 42, 1-N-[4-[7-(6-Cyanopyridin-3-yl)quinolin-4-yl]oxyphenyl]-1-N′-(4-fluorophenyl)cyclopropane-1,1-dicarboxamide], for which the IC50 in assay [2] lay within 0.01 to 0.1 µM.

Turning to `Cc1cc2c(Oc3c(F)cc(NC(=O)C4(C(=O)Nc5ccc(F)cc5)CC4)c(F)c3F)ccnc2cc1-c1cnn(C)c1` [Compound 110, 1-N-(4-Fluorophenyl)-1-N′-[2,3,5-trifluoro-4-[6-methyl-7-(1-methylpyrazol-4-yl)quinolin-4-yl]oxyphenyl]cyclopropane-1,1-dicarboxamide], the IC50 in assay [2] lay within 0.01 to 0.1 µM.

For the compound `O=C(Nc1ccc(F)cc1)C1(C(=O)Nc2ccc(Oc3ccnc4cc(-c5ccncn5)ccc34)cc2)CC1` [Compound 114, 1-N′-(4-Fluorophenyl)-1-N-[4-(7-pyrimidin-4-ylquinolin-4-yl)oxyphenyl]cyclopropane-1,1-dicarboxamide], the half-inhibitory concentration (IC50) in assay [2] lay in the range of 0.01 to 0.1 µM.

`O=C(Nc1ccc(F)cc1)C1(C(=O)Nc2ccc(Oc3ccnc4cc(-c5cc6n(n5)CCC6)ccc34)cc2)CC1` [Compound 124, 1-N-[4-[7-(5,6-Dihydro-4H-pyrrolo[1,2-b]pyrazol-2-yl)quinolin-4-yl]oxyphenyl]-1-N′-(4-fluorophenyl)cyclopropane-1,1-dicarboxamide]: the IC50 in assay [2] fell in the range of 0.01 to 0.1 µM.

In turn, `O=C(Nc1ccc(F)cc1)C1(C(=O)Nc2ccc(Oc3ccnc4cc(-c5ccnc(F)c5)ccc34)cc2)CC1` [Compound 33, 1-N′-(4-Fluorophenyl)-1-N-[4-[7-(2-fluoropyridin-4-yl)quinolin-4-yl]oxyphenyl]cyclopropane-1,1-dicarboxamide] displayed an IC50 in assay [2] of 0.01 to 0.1 µM.

Consider `O=C(Nc1ccc(F)cc1)C1(C(=O)Nc2ccc(Oc3ccnc4cc(-c5cncc(F)c5)ccc34)cc2)CC1` [Compound 45, 1-N′-(4-Fluorophenyl)-1-N-[4-[7-(5-fluoropyridin-3-yl)quinolin-4-yl]oxyphenyl]cyclopropane-1,1-dicarboxamide], for which the IC50 in assay [2] was in the range of 0.01 to 0.1 µM.

As for `Nc1ccc(-c2ccc3c(Oc4ccc(NC(=O)C5(C(=O)Nc6ccc(F)cc6)CC5)cc4)ccnc3c2)cn1` [Compound 38, 1-N-[4-[7-(6-Aminopyridin-3-yl)quinolin-4-yl]oxyphenyl]-1-N′-(4-fluorophenyl)cyclopropane-1,1-dicarboxamide], in assay [2], the IC50 lay in the range of 0.01 to 0.1 µM.

The compound `COc1cncc(-c2ccc3c(Oc4ccc(NC(=O)C5(C(=O)Nc6ccc(F)cc6)CC5)cc4)ccnc3c2)c1` [Compound 47, 1-N′-(4-Fluorophenyl)-1-N-[4-[7-(5-methoxypyridin-3-yl)quinolin-4-yl]oxyphenyl]cyclopropane-1,1-dicarboxamide] yielded an IC50 in assay [2] of 0.01 to 0.1 µM.

For orientation: IC50 means the midpoint of a concentration-inhibition curve.
